One assay deals with T1, TGFβ1 (Homo sapiens, UniProt P01137).
T1 construct: purchased ProSpec-Tany TechnoGene
Briefly: Molecular interactions by MALDI-TOF/MS and co-immunoprecipitation. The settings on record: for co-immunoprecipitation with TGFβ1: 1.6 μM equimolar with CaCl2, 37°C overnight, IP anti-S100A8 or anti-S100A9, WB TGFβ1; for homo-oligomer formation: 11.3 μM with Ca2+; for homo-oligomer formation / hetero-dimer formation with TGFβ1: overnight, MALDI-TOF/MS; for hetero-dimer formation with TGFβ1: 1:1 molar ratio (11.3 μM) with Ca2+. In kind it is binding. As for the experimental part:
Co-immunoprecipitation experiments were performed using protein G-Sepharose (GE Healthcare Technologies). TGFβ1 (1.6 μM) was incubated in equimolar concentrations with S100A8 or S100A9 at 37°C overnight in the presence of equimolar CaCl2. The mixtures were then incubated for 2 h with anti-S100A8 polyclonal or anti-S100A9 monoclonal antibodies (Santa Cruz Biotechnology) preadsorbed to protein G. Immunoprecipitates, washed three times in 10 mM Tris HCl containing 40 mM NaCl, pH 7.5, were boiled in an SDS-PAGE sample buffer before electrophoresis on 4–12% NuPAGE®NovexBis-Tris SDS–PAGE gels. After protein transfer, nitrocellulose membranes were blotted with anti-TGFβ1 antibody (Cell Signaling Technology).
S100A8, S100A9 and TGFβ1 and calcium ions (CaCl2) were mixed at an equimolar concentration (11.3 μM) in an aqueous solution. Each mixture was incubated overnight at 37°C prior to MALDI-TOF/MS analysis. S100A8, S100A9 and TGFβ1 mixtures were diluted 1/10 in 50 μL of 0.1% TFA aqueous solution, after which 5 microliters of each dilution were added to 5 μl of Sinapinic acid (SA); 1 μl of the resulting mixture was deposited in duplicate on the steel sample holder and allowed to dry. External mass calibration (Protein Calibration Standard II, BrukerDaltonics) was based on monoisotopic values of [M + H] + of Trypsinogen, Protein A, Albumin-Bovine (BSA), at m/z 23982, 44613, 66500, respectively. MALDI-TOF/MS measurements were performed using an Ultraflex II MALDI-TOF instrument (BrukerDaltonics), operating in linear positive ion mode. Ions were formed using a pulsed UV laser (λ = 337 nm) beam. The instrumental conditions were: IS1 = 25 kV; IS2 = 23.35 kV; delay time = 70 nsec. All chemicals and solvents were purchased from Sigma-Aldrich (Sigma Aldrich). One spectrum was collected for each sample, an average of 1,000 laser shots being obtained from the respective two replicate spots.

A further assay deals with BxPC3 N-Cadherin. Briefly: N-cadherin immunocytochemistry, BxPC3. Format: cell-based, human. The settings on record: vs untreated cells. As for the experimental part: In order to investigate immunocytochemical reactions, control and stimulated cells were formalin-fixed and paraffin embedded before obtaining […] sections from each cell block. All immunocytochemical staining was performed automatically (Bondt—maX, Menarini, Florence, Italy) with primary antibodies: E-cadherin (DakoCytomation, Glostrup, Denmark) (1:200), N-cadherin (DakoCytomation) (1:100), Twist1 (Novocastra, Newcastle-upon-Tyne, UK)(1:600). Sections were then lightly counterstained with hematoxylin. E-cadherin and N-cadherin immunoreactions were defined as immunoreactions detectable in the membrane while Twist was defined as a positive nuclear staining. At least three independent sets of experiments were performed in each experimental condition.

A further assay has as its system BxPC3 EMT gene mRNA. Nature of the assay: Real time PCR for EMT markers, BxPC3. Format: cell-based, human. The settings on record: BxPC3, 72 hours. As for the experimental part:
BxPC3 and MiaPaCa2 cells (300 × 10^3) were seeded in six well dishes for 24 hours in their complete media. Cells remained non-stimulated (negative control) or were stimulated with 10 nM S100A8, 10 nM S100A9 and 50 nM NT-S100A8, alone or combined with 0.02 ng/ml TGFβ1, for 72 hours. Following stimulation, the cells were collected with 0.25% trypsin (1 mM EDTA) and centrifuged for 10 min at 4,000 rpm. Total RNA was extracted from cells using the High Pure RNA isolation kit (Roche, Monza, Italy), and reverse transcription was performed using 200 ng of total RNA, M-MLV Transcriptase and 250 μM random primers (Invitrogen S.R.L.). Quantitative Real-Time PCR analysis for CDH1 (E-cadherin), CDH2 (N-cadherin), SNAI1 (Snail), SNAI2 (Slug), TWIST1 (Twist), ZEB1, ZEB2, and B2M (β2-micro-globulin) were performed with the LightCycler 480 Real-Time System (Roche Diagnostics, Mannheim, Germany). The primer sequences (shown in Additional file 10: Table S2) and the respective probes were designed using the Universal ProbeLibrary (Roche) and ProbeFinder software (http://www.roche-applied-science.com/). Experimental procedures followed the standard protocol using the LightCycler 480 Probes Master (Roche). β2-microglobulin (B2M) was included as a housekeeping gene control. […]

In a further assay the test system is Panc1. Briefly: XTT cell viability assay, Panc1. In kind it is cell-based, human. The settings on record: 48 hours, TGFβ1 0.02 ng/ml, NT-S100A8 50 nM, S100A8 10 nM, S100A9 10 nM, alone or combined, at least three independent experiments in quadruplicate. As for the experimental part: BxPC3, Capan1, MiaPaCa2, Panc1 and BxPC3-SMAD4+ cells were seeded (2000 cells per well) in 96-well cell culture plates and cultured in complete media for 24 hours. Media were then replaced with fresh cell culture media in absence (control) or in presence of TGFβ1 (0.02 ng/ml) and NT-S100A8 (50 nM), alone or combined or in absence (control) or in presence of TGFβ1 (0.02 ng/ml), S100A8 (10 nM) and S100A9 (10 nM) alone or combined. Cell growth was assessed after 48 hours using the XTT cell viability test (Roche, Milano, Italy). At least three independent experiements, each made in quadruplicate, were run. The results were expressed as percentage with respect to the median Abs450nm of control cells run in the same experimental set.
Background: Formazan colour is commonly taken as a measure of viable cells.

The test system of the next assay is BxPC3-SMAD4+. Briefly: XTT cell viability assay, BxPC3-SMAD4+. Format: cell-based, human. The note with it: BxPC3-SMAD4+ vs BxPC3, XTT, 48 hours; TGFβ1 0.02 ng/ml, NT-S100A8 50 nM. As for the experimental part: Supplementary file 1478-811X-12-20-S7.tiff: Additional file 7: Figure S6 XTT cell viability assay results. BxPC3 (empty columns) and BxPC3-SMAD4+ (filled columns) were seeded in a 96 well culture plate (2000 cells/well) and cultured for 48 hours, A: in absence (control) or in presence of TGFβ1 (0.02 ng/ml) and NT-S100A8 (50 nM), alone or combined; B: in absence (control) or in presence of TGFβ1 (0.02 ng/ml) and S100A8 (10 nM) and S100A9 (10 nM), alone or combined. In each experimental set, the median value of Abs450nm of untreated cells was calculated and used as reference. All the other values were expressed as percentage to the reference. Columns and bars show mean and standard errors, respectivelty. Student’s t test: * = p<0.05. Click here for file
BxPC3, Capan1, MiaPaCa2, Panc1 and BxPC3-SMAD4+ cells were seeded (2000 cells per well) in 96-well cell culture plates and cultured in complete media for 24 hours. […] Cell growth was assessed after 48 hours using the XTT cell viability test (Roche, Milano, Italy). […] The results were expressed as percentage with respect to the median Abs450nm of control cells run in the same experimental set.

The results in this text go back to paper PMC4108065, “Inflammation and pancreatic cancer: molecular and functional interactions between S100A8, S100A9, NT-S100A8 and TGFβ1” (Cell Communication and Signaling : CCS, 2014).

T1 sequence (P01137 279-390 limits assumed): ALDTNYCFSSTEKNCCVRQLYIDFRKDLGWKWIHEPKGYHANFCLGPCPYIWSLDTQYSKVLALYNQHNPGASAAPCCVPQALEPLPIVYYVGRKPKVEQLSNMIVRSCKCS

As for “S100A8: inflammatory calcium binding protein S100A8 (ProSpec-Tany TechnoGene)”, in the assay with TGFβ1, the “co-immunoprecipitation with TGFβ1” value was “TGFβ1 was detected”; the homo-oligomer formation result is given as “formed homo-dimers”; the “hetero-dimer formation with TGFβ1” value is listed as “formed hetero-dimers not only between themselves, but also with TGFβ1”. In the assay with BxPC3 N-Cadherin, the N-Cadherin membranous immunostaining entry is on record as “less marked than in control cells”. Moreover, the Twist expression entry with BxPC3 EMT gene mRNA (10 nM, levels comparable with those of TGFβ1, Kruskal-Wallis p = 0.018) is on record as “significantly increased”. For the same substance, the “Panc1 % to Control Mean± SEM” value with Panc1 is listed as 93.16 ± 3.65 % to Control.
“NT-S100A8: 14 N-terminal aminoacid peptide of S100A8, isolated from PDAC tissues (MLTELEKALNSIID; UniProt P05109 1-14, looked up, fragment)”: in the assay on BxPC3 N-Cadherin, the N-Cadherin membranous immunostaining result is on record as “less marked than in control cells”. Moreover, in the assay on BxPC3-SMAD4+, the “cell proliferation response associated with Smad4 expression” value was “positive cell proliferation response”.
In the case of “TGFβ1: transforming growth factor beta 1 (ProSpec-Tany TechnoGene)”, in the assay with TGFβ1, the homo-oligomer formation result is “formed homo-dimers and homo-trimers”. Further, the N-Cadherin membranous immunostaining entry in the assay on BxPC3 N-Cadherin is reported as “less marked than in control cells”. The “Twist median fold increase” value with BxPC3 EMT gene mRNA (0.02 ng/ml TGFβ1, RT-PCR, with respect to control cells) turned out to be 6.32 fold. The “cell proliferation response associated with Smad4 expression” value in the assay on BxPC3-SMAD4+ is on record as “positive cell proliferation response”. For the same substance, the “Panc1 % to Control Mean± SEM” value with Panc1 was 88.31 ± 3.68 % to Control.
Regarding “S100A9: inflammatory calcium binding protein S100A9, S100A8 binding partner”, in the assay with TGFβ1, the “co-immunoprecipitation with TGFβ1” value is reported as “TGFβ1 was detected”; the homo-oligomer formation result was “formed homo-dimers and homo-trimers”; the “hetero-dimer formation with TGFβ1” value is on record as “formed hetero-dimers not only between themselves, but also with TGFβ1”. The N-Cadherin membranous immunostaining entry with BxPC3 N-Cadherin is recorded as “less marked than in control cells”. Also, the “Panc1 % to Control Mean± SEM” value in the assay with Panc1 is on record as 96.72± 4.43 % to Control.
